Laboratory results from patent US20100172854A1, “ANTIBACTERIAL FORMULATIONS” (priority 2007, published 2010).
In brackets after ≈: the same amount, converted by molar mass.

How the values were obtained:
[1] = test system: S. aureus ATCC 12600-U; test: MBC assay; type: cell-based, Staphylococcus aureus
Method: (§1) The staphylococci were cultured and maintained on Mueller-Hinton Medium (agar and broth) at pH 7.2; cultures were incubated aerobically at 37° C. for 19-20 hours.
(§2) This assay, normally carried out after an MIC assay, determines the minimum concentration of a compound that is lethal to the micro-organism being tested.
(§3) These samples were then individually sub-cultured on antibiotic-free agar medium, under the incubation conditions described above. Following incubation they were examined visually for microbial growth.

[2] = test system: S. aureus ATCC 12601; test: MBC assay; type: cell-based, Staphylococcus aureus
Method: as §1, §2, §3

[3] = test system: S. aureus ATCC 12602; test: MBC assay; type: cell-based, Staphylococcus aureus
Method: as §1, §2, §3

[4] = test system: S. aureus ATCC 12604; test: MBC assay; type: cell-based, Staphylococcus aureus
Method: as §1, §2, §3

[5] = test system: S. aureus ATCC 12606; test: MBC assay; type: cell-based, Staphylococcus aureus
Method: as §1, §2, §3

[6] = test system: S. aureus ATCC 25923; test: MBC assay; type: cell-based, Staphylococcus aureus
Method: as §1, §2, §3

[7] = test system: S. aureus CPHL EMRSA 15; test: MBC assay; type: cell-based, Staphylococcus aureus; details: resistance phenotype Met/β-lactams
Method: as §1, §2, §3

[8] = test system: S. aureus CPHL EMRSA 16; test: MBC assay; type: cell-based, Staphylococcus aureus; details: resistance phenotype Met/β-lactams
Method: as §1, §2, §3

[9] = test system: S. aureus CPHL GISA HO41340156; test: MBC assay; type: cell-based, Staphylococcus aureus; details: resistance phenotype Van/Tec (intermediate)
Method: as §1, §2, §3

[10] = test system: S. aureus CPHL VISA Mu3; test: MBC assay; type: cell-based, Staphylococcus aureus; details: resistance phenotype Van (intermediate)
Method: as §1, §2, §3

[11] = test system: S. aureus CPHL VISA Mu50; test: MBC assay; type: cell-based, Staphylococcus aureus; details: resistance phenotype Van (intermediate)
Method: as §1, §2, §3

[12] = test system: S. aureus NCTC 12493; test: MBC assay; type: cell-based, Staphylococcus aureus
Method: as §1, §2, §3

[13] = test system: S. aureus NCTC 12981; test: MBC assay; type: cell-based, Staphylococcus aureus
Method: as §1, §2, §3

[14] = test system: Streptococcus mutans ATCC 25175; test: MIC assay; type: cell-based; details: ATCC25175
Method: (§4) The S. mutans strains were cultured and maintained on Wilkins-Chalgren Anaerobe Medium (agar and broth) at pH 7.0 supplemented with 1 g/L glucose; all cultures were incubated at 37° C. for 48 h in an atmosphere containing 5% CO2.
(§5) This is a standard international method for quantitatively assessing the antimicrobial activity of a compound in a liquid medium. The method used a sterile 96-well microtitre plate, capable of holding about 200 μl of liquid per well. The wells contained liquid culture medium and ranges of decreasing concentrations of the relevant test compound in doubling dilutions (e.g. 1000, 500, 250, 125 . . . μg/ml, etc. down to 0.49 μg/ml). The culture media were as described above.
(§6) The wells were inoculated with a liquid suspension of freshly grown micro-organism and incubated under the conditions described above. After incubation, the microtitre plate was examined visually (with the aid of a light box) for cloudiness in each well, which would indicate microbial growth. The MIC value was recorded as the lowest concentration of test compound required to inhibit microbial growth, i.e. the lowest concentration for which the liquid in the well remained clear.
(§7) The assays included both negative (culture medium with no micro-organisms) and positive (culture medium plus diluting solvent plus micro-organism) controls.

[15] = test system: Streptococcus mutans ATCC 35668; test: MIC assay; type: cell-based; details: ATCC35668
Method: as §4, §5, §6, §7

[16] = test system: P. acnes PPR-007; test: Agar dilution MIC assay; type: cell-based, Propionibacterium acnes; details: Cutibacterium acnes, PPR007
Method: (§8) The propionibacteria were cultured and maintained on Wilkins-Chalgren Anaerobe Medium (agar and broth) at pH 6.0; all cultures were incubated anaerobically at 37° C. for 72 hours.
(§9) This is a standard international method for quantitatively assessing the antimicrobial activity of a compound in a solid medium. The test compound was prepared to 40× the highest concentration required (e.g. 10 mg/ml for a final concentration of 250 μg/ml) and a series of doubling dilutions were performed in a suitable solvent. A set amount of these antimicrobial stock solutions was then added to molten agar medium (ca. 55° C.), mixed thoroughly, poured into sterile Petri dishes and allowed to cool/set. The culture medium was as described above.
(§10) A Multipoint™ Inoculator (AQS Manufacturing Ltd, UK) was used to inoculate the plates by spotting the inocula onto the surface of the agar, delivering approximately 1 to 2 μl per spot (yielding 10^5 CFU (colony forming units) per spot).
(§11) The plate(s) were then incubated under the conditions described above, following which they were examined visually for signs of bacterial growth. The MIC value was ascertained when there was a marked reduction in, or total loss of, growth on the test plate at the lowest concentration as compared to that of the growth on the control plate.
(§12) The assays were conducted in triplicate and included a positive control (culture medium, diluting solvent and inoculum).

[17] = test system: P. acnes PRP-004; test: Agar dilution MIC assay; type: cell-based, Propionibacterium acnes; details: Cutibacterium acnes, PRP004, resistance phenotype Tet
Method: as §8, §9, §10, §11, §12

[18] = test system: P. acnes PRP-008; test: Agar dilution MIC assay; type: cell-based, Propionibacterium acnes; details: Cutibacterium acnes, PRP008, resistance phenotype Clin
Method: as §8, §9, §10, §11, §12

[19] = test system: P. acnes PRP-053; test: Agar dilution MIC assay; type: cell-based, Propionibacterium acnes; details: Cutibacterium acnes, PRP053, resistance phenotype Tet/MLS
Method: as §8, §9, §10, §11, §12

[20] = test system: P. acnes PRP-068; test: Agar dilution MIC assay; type: cell-based, Propionibacterium acnes; details: Cutibacterium acnes, PRP068, resistance phenotype Ery
Method: as §8, §9, §10, §11, §12

[21] = test system: P. acnes PRP-101; test: Agar dilution MIC assay; type: cell-based, Propionibacterium acnes; details: Cutibacterium acnes, PRP101, resistance phenotype Tet/MLS
Method: as §8, §9, §10, §11, §12

Cc1cc(Cc2cc(C)cc(C(C)(C)C)c2O)c(O)c(C(C)(C)C)c1 [AO 2246, 2,2′-methylene-bis(4-methyl-6-tert-butylphenol)]
MIC/MBC Ratio [1]: 0.06 | MBC ([1]; Staphylococcus aureus, ATCC12600): 15.6 µg/mL (≈ 45.8 µM) | MIC/MBC Ratio [2]: 1 | MBC ([2]; Staphylococcus aureus, ATCC12601): 1.95 µg/mL (≈ 5.73 µM) | MIC/MBC Ratio [3]: 0.5 | MBC ([3]; Staphylococcus aureus, ATCC12602): 3.9 µg/mL (≈ 11.5 µM) | MIC/MBC Ratio [4]: 0.5 | MBC ([4]; Staphylococcus aureus, ATCC12604): 3.9 µg/mL (≈ 11.5 µM) | MIC/MBC Ratio [5]: 0.5 | MBC ([5]; Staphylococcus aureus, ATCC12606): 3.9 µg/mL (≈ 11.5 µM) | MIC/MBC Ratio [6]: 1 | MBC ([6]; Staphylococcus aureus, ATCC25923): 7.8 µg/mL (≈ 22.9 µM) | MBC ([7]; Staphylococcus aureus): 7.8 µg/mL (≈ 22.9 µM) | MIC/MBC Ratio [7]: 0.25 | MBC ([8]; Staphylococcus aureus): 7.8 µg/mL (≈ 22.9 µM) | MIC/MBC Ratio [8]: 0.25 | MBC ([9]; Staphylococcus aureus): 3.9 µg/mL (≈ 11.5 µM) | MIC/MBC Ratio [9]: 0.5 | MBC ([10]; Staphylococcus aureus): 7.8 µg/mL (≈ 22.9 µM) | MIC/MBC Ratio [10]: 0.25 | MBC ([11]; Staphylococcus aureus): 15.6 µg/mL (≈ 45.8 µM) | MIC/MBC Ratio [11]: 0.06 | MIC/MBC Ratio ([12]; S. aureus NCTC 12493, resistance phenotype Met): 0.5 | MBC ([12]; Staphylococcus aureus, NCTC12493): 1.95 µg/mL (≈ 5.73 µM) | MIC/MBC Ratio [13]: 0.25 | MBC ([13]; Staphylococcus aureus, NCTC12981): 7.8 µg/mL (≈ 22.9 µM) | MIC [14]: 15.6 µg/mL (≈ 45.8 µM) | MIC [15]: 7.8 µg/mL (≈ 22.9 µM) | MIC [16]: 1.95 µg/mL (≈ 5.73 µM) | MIC [17]: 3.9 µg/mL (≈ 11.5 µM) | MIC [18]: 1.95 µg/mL (≈ 5.73 µM) | MIC [19]: 3.9 µg/mL (≈ 11.5 µM) | MIC [20]: 3.9 µg/mL (≈ 11.5 µM) | MIC [21]: 3.9 µg/mL (≈ 11.5 µM)
